In ChEMBL document CHEMBL1201862, “PubChem BioAssay data set” (2004):
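Briefly, cells in 96-well plates were exposed to five compound concentrations for 48 h, and endpoints were estimated by linear interpolation. GI50 marks 50% less growth.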 Activity calls are given as the source filed them. Rule as the data show it: active = GI50 up to about 1.1 µM and inactive = higher.

What was measured:
Test in all cases: NCI tumour cell line growth inhibition, 48 h
[1] = test system: SW-620
[2] = test system: UO-31
[3] = test system: OVCAR-8
[4] = test system: SF-539
[5] = test system: HOP-92
[6] = test system: OVCAR-5
[7] = test system: SK-MEL-2
[8] = test system: HOP-62
[9] = test system: CCRF-CEM
[10] = test system: SNB-19
[11] = test system: HCT-15
[12] = test system: M14
[13] = test system: UACC-257
[14] = test system: EKVX
[15] = test system: MDA-MB-435
[16] = test system: HT-29
[17] = test system: UACC-62
[18] = test system: DU-145
[19] = test system: RPMI-8226
[20] = test system: NCI-H226
[21] = test system: SR
[22] = test system: T47D
[23] = test system: HL-60
[24] = test system: BT-549
[25] = test system: NCI-H460
[26] = test system: HCC 2998
[27] = test system: A498
[28] = test system: LOX IMVI
[29] = test system: SK-OV-3
[30] = test system: Malme-3M
[31] = test system: SF-295
[32] = test system: NCI-H23
[33] = test system: SK-MEL-5
[34] = test system: SF-268
[35] = test system: RXF 393
[36] = test system: COLO 205
[37] = test system: TK-10
[38] = test system: IGROV-1
[39] = test system: KM12
[40] = test system: MDA-N
[41] = test system: MCF7
[42] = test system: U-251
[43] = test system: Hs-578T
[44] = test system: NCI/ADR-RES
[45] = test system: OVCAR-4
[46] = test system: MDA-MB-231
[47] = test system: 786-0
[48] = test system: CAKI-1
[49] = test system: ACHN
[50] = test system: PC-3
[51] = test system: MOLT-4
[52] = test system: K562
[53] = test system: SN12C
[54] = test system: OVCAR-3
[55] = test system: HCT-116
[56] = test system: SK-MEL-28
[57] = test system: A549
[58] = test system: SNB-75
[59] = test system: NCI-H522

In the case of `CCNC(=S)N/N=C1\C(=O)Nc2ccc([N+](=O)[O-])cc21`, the GI50 [1] was 50200 nM (inactive), the GI50 [2] was 25800 nM (inactive) and the GI50 [3] was 34700 nM (inactive). For the same molecule, the GI50 [4] was 30200 nM (inactive), the GI50 [5] was 34000 nM (inactive) and the GI50 [6] was > 100000 nM (inactive). For the same molecule, the GI50 [7] was > 100000 nM (inactive), the GI50 [8] was 27700 nM (inactive) and the GI50 [9] was 7060 nM (inactive). For the same molecule, the GI50 [10] was 45400 nM (inactive), the GI50 [11] was 49300 nM and the GI50 [12] was 46700 nM (inactive). For the same molecule, the GI50 [13] was 53500 nM (inactive), the GI50 [14] was 50500 nM (inactive) and the GI50 [15] was 88100 nM (inactive). For the same molecule, the GI50 [16] was 49500 nM (inactive), the GI50 [17] was 99100 nM (inactive) and the GI50 [18] was 33000 nM (inactive). The GI50 [19] was > 100000 nM (inactive), the GI50 [20] was 97700 nM (inactive) and the GI50 [21] was 31300 nM (inactive). For the same molecule, the GI50 [22] was 31600 nM (inactive), the GI50 [23] was 92900 nM (inactive) and the GI50 [24] was > 100000 nM (inactive). For the same molecule, the GI50 [25] was 20400 nM (inactive), the GI50 [26] was 24900 nM (inactive) and the GI50 [27] was 22900 nM (inactive). For the same molecule, the GI50 [28] was 61400 nM (inactive), the GI50 [29] was 39400 nM (inactive) and the GI50 [30] was 57800 nM (inactive). The GI50 [31] was 29300 nM (inactive), the GI50 [32] was > 100000 nM (inactive) and the GI50 [33] was 35100 nM (inactive). For the same molecule, the GI50 [34] was 44700 nM (inactive), the GI50 [35] was 26000 nM (inactive) and the GI50 [36] was > 100000 nM (inactive). The GI50 [37] was 18200 nM (inactive), the GI50 [38] was 31600 nM (inactive) and the GI50 [39] was 52700 nM (inactive). The GI50 [40] was > 100000 nM (inactive), the GI50 [41] was 41000 nM (inactive) and the GI50 [42] was 29500 nM (inactive). For the same molecule, the GI50 [43] was 98900 nM (inactive), the GI50 [44] was 32800 nM (inactive) and the GI50 [45] was 25600 nM (inactive). The GI50 [46] was 35300 nM (inactive), the GI50 [47] was 19100 nM (inactive) and the GI50 [48] was 11900 nM (inactive). For the same molecule, the GI50 [49] was 31200 nM (inactive), the GI50 [50] was 97500 nM (inactive) and the GI50 [51] was 22400 nM (inactive). The GI50 [52] was 52700 nM (inactive), the GI50 [53] was 31700 nM (inactive) and the GI50 [54] was 40400 nM (inactive). The GI50 [55] was 27700 nM (inactive), the GI50 [56] was 48000 nM (inactive) and the GI50 [57] was 35700 nM (inactive).
In the case of `C/C(=N\N=C(/S)N(C)C)c1cccnn1`, the GI50 [1] was 612 nM (active), the GI50 [2] was 564 nM (active) and the GI50 [3] was 526 nM (active). The GI50 [4] was 513 nM (active), the GI50 [58] was 2030 nM (inactive) and the GI50 [6] was 1060 nM (active). The GI50 [7] was 7660 nM (inactive), the GI50 [8] was 1050 nM (active) and the GI50 [9] was 275 nM (active). For the same molecule, the GI50 [10] was 1460 nM (inactive), the GI50 [11] was 468 nM and the GI50 [12] was 594 nM (active). For the same molecule, the GI50 [13] was 438 nM (active), the GI50 [14] was 551 nM (active) and the GI50 [15] was 1420 nM (inactive). The GI50 [16] was 569 nM (active), the GI50 [17] was 486 nM (active) and the GI50 [18] was 889 nM (active). The GI50 [59] was 740 nM (active), the GI50 [19] was 466 nM (active) and the GI50 [20] was 849 nM (active). For the same molecule, the GI50 [21] was 293 nM (active), the GI50 [22] was 916 nM (active) and the GI50 [23] was 365 nM (active). The GI50 [24] was 869 nM (active), the GI50 [25] was 394 nM (active) and the GI50 [26] was 7460 nM (inactive). For the same molecule, the GI50 [27] was 1220 nM (inactive), the GI50 [28] was 495 nM (active) and the GI50 [29] was 1260 nM (inactive). For the same molecule, the GI50 [30] was 760 nM (active), the GI50 [31] was 879 nM (active) and the GI50 [32] was 1130 nM (inactive). The GI50 [33] was 486 nM (active), the GI50 [34] was 650 nM (active) and the GI50 [35] was 488 nM (active). The GI50 [36] was 468 nM (active), the GI50 [37] was 4050 nM (inactive) and the GI50 [38] was 689 nM (active). For the same molecule, the GI50 [39] was 2480 nM (inactive), the GI50 [40] was 752 nM (active) and the GI50 [41] was 726 nM (active). The GI50 [42] was 977 nM (active), the GI50 [43] was > 66400 nM (inactive) and the GI50 [44] was 521 nM (active). For the same molecule, the GI50 [45] was 608 nM (active), the GI50 [46] was 745 nM (active) and the GI50 [47] was 486 nM (active). The GI50 [48] was 853 nM (active), the GI50 [49] was 79.6 nM (active) and the GI50 [50] was 385 nM (active). The GI50 [51] was 188 nM (active), the GI50 [52] was 794 nM (active) and the GI50 [53] was 1100 nM (active). The GI50 [54] was 424 nM (active), the GI50 [55] was 369 nM (active) and the GI50 [56] was 1290 nM (inactive). For the same molecule, the GI50 [57] was 832 nM (active).
In the case of `COc1cc(O)c(C(=O)/C=C/c2ccc(O)cc2)cc1Oc1ccc(C(=O)/C=C/c2ccc(O)cc2)c(O)c1` [RHUSCHALCONE IV], the GI50 [1] was 3360 nM (inactive), the GI50 [2] was 2560 nM (inactive) and the GI50 [3] was 2590 nM (inactive). The GI50 [4] was 2370 nM (inactive), the GI50 [58] was 4210 nM (inactive) and the GI50 [5] was 4360 nM (inactive). For the same molecule, the GI50 [6] was 2690 nM (inactive), the GI50 [7] was 3360 nM (inactive) and the GI50 [8] was 4470 nM (inactive). For the same molecule, the GI50 [9] was 2660 nM (inactive), the GI50 [10] was 4530 nM (inactive) and the GI50 [11] was 1790 nM. The GI50 [12] was 3900 nM (inactive), the GI50 [13] was 6190 nM (inactive) and the GI50 [14] was 2270 nM (inactive). The GI50 [15] was 3400 nM (inactive), the GI50 [16] was 1360 nM (inactive) and the GI50 [17] was 2330 nM (inactive). The GI50 [18] was 2290 nM (inactive), the GI50 [59] was 1940 nM (inactive) and the GI50 [19] was 2340 nM (inactive). The GI50 [21] was 2380 nM (inactive), the GI50 [22] was 2290 nM (inactive) and the GI50 [23] was 3650 nM (inactive). For the same molecule, the GI50 [24] was 2920 nM (inactive), the GI50 [25] was 2880 nM (inactive) and the GI50 [27] was 2050 nM (inactive). For the same molecule, the GI50 [28] was 3400 nM (inactive), the GI50 [29] was 2880 nM (inactive) and the GI50 [30] was 2580 nM (inactive). The GI50 [31] was 3760 nM (inactive), the GI50 [32] was 2670 nM (inactive) and the GI50 [33] was 1920 nM (inactive). For the same molecule, the GI50 [34] was 2960 nM (inactive), the GI50 [35] was 2480 nM (inactive) and the GI50 [36] was 1880 nM (inactive). The GI50 [37] was 3420 nM (inactive), the GI50 [38] was 1670 nM (inactive) and the GI50 [39] was 1440 nM (inactive). The GI50 [40] was 3210 nM (inactive), the GI50 [41] was 2690 nM (inactive) and the GI50 [42] was 1930 nM (inactive). The GI50 [43] was 6520 nM (inactive), the GI50 [44] was 2910 nM (inactive) and the GI50 [45] was 2220 nM (inactive). The GI50 [46] was 3600 nM (inactive), the GI50 [47] was 2230 nM (inactive) and the GI50 [48] was 3500 nM (inactive). The GI50 [49] was 2400 nM (inactive), the GI50 [50] was 3780 nM (inactive) and the GI50 [51] was 3130 nM (inactive). For the same molecule, the GI50 [52] was 3390 nM (inactive), the GI50 [53] was 2450 nM (inactive) and the GI50 [54] was 2870 nM (inactive). For the same molecule, the GI50 [55] was 1800 nM (inactive), the GI50 [56] was 1950 nM (inactive) and the GI50 [57] was 2960 nM (inactive).
